This note sets out measurements from US20100047373A9, “Method for Extracting Plants of the Genus Pelargonium, Extract Produced According to Said Method, and Use Thereof” (EMSPHARM GMBH, priority 2005, published 2010).

For this test, the system named is EMC virus/L929 (IFN) test model. Description: Cytoprotective effect / IFN values in the EMC virus/L929 (IFN) test model. The format is cell-based, murine. The conditions noted are these: determined from 8 standard curves. The procedure: Determining the Cytoprotective Effect by Obtaining the Values for IFN in the EMC Virus/L929 (IFN) Test Model
L929 (IFN) cells (batch no. 5577) were cultured, trypsinized, washed and counted in 100-mL culture dishes. The suspension was adjusted to 2×10^5 cells/mL and sown in microtitre plates with 2×10^4 cells/well, which were incubated over night at 37° C., 5% CO2. After that, the supernatant was replaced by 100 μL each medium control, cell control, virus control with rMuIFN-γ control, rMuIFN-γ standard (100 U/mL) and test solution, all of which were diluted lineally.
The samples were incubated for exactly eight hours at 37° C., 5% CO2. After the end of the incubation time, 100 μL each of the vital suspension used were pipetted into the vital and interferon controls and into the test solutions and again incubated over night at 37° C., 5% CO2.
After 22 hours, fully developed viral activity appeared (cell lysis must be distinctly pronounced in the vital control), so that the lysis was interrupted. The supernatants were discarded via the wash basin 100 μl of a 0.5% crystal violet solution were pipetted into each well. […] The absorption of the crystal violet staining was determined on the ELISA reader at 550 nm. […] The ED50 value of the rMuIFN-γ standard was at 1,076 U/mL (determined from 8 standard curves).

As for “rMuIFN-γ standard: rMuIFN-γ standard (100 U/mL) used in the EMC virus/L929 (IFN) test”, the “ED50 value of the rMuIFN-γ standard” value is given as 1,076 U/mL.
